This passage reports IC50 results from US12331033B2, “Inhibitors of SARM1” (Disarm Therapeutics, Inc., priority 2020, dated 2025).

Chain of SARM1 (ARM-SAM-TIR) (Q6SZW1 other isoform, or with tags, fused parts or gaps): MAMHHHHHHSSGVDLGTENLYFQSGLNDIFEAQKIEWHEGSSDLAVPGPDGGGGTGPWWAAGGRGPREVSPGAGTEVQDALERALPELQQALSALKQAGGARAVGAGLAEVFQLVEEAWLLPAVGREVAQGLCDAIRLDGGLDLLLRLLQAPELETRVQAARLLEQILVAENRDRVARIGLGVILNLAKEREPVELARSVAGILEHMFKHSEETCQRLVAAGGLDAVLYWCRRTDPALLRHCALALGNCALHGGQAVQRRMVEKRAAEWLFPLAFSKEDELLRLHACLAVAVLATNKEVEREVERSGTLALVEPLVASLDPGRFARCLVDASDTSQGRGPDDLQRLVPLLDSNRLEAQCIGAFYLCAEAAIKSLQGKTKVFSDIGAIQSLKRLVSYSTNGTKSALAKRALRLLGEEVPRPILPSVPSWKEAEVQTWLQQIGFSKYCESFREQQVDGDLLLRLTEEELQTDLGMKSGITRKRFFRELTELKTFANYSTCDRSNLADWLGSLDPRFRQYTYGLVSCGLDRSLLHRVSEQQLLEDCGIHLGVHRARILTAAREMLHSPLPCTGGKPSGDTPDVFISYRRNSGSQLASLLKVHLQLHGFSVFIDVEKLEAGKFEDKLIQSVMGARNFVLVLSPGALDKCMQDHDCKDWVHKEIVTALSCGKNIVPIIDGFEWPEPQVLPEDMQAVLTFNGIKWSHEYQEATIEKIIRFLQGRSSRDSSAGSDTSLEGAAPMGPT

The target of this assay is SARM1 (ARM-SAM-TIR) (Homo sapiens (Human), UniProt Q6SZW1). In words: ARM-SAM-TIR SARM1 IC50 assay (NADase activity, NAD+ cleavage, RapidFire MS). It counts as biochemical. Particulars: ARM-SAM-TIR lysate 5 μg/mL, 2 h pre-incubation, 5 μM NAD+, 2 hr room temperature. In short, it runs like this:
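Lysate of NRK1-HEK293T cells transfected with full-length ARM-SAM-TIR SARM1 (5 μg/mL final) pre-incubated with compound (1% DMSO) 2 h at room temperature in Dulbecco's PBS. Reaction started with 5 μM NAD+, run 2 hr at room temperature, then stopped with TCA/acetonitrile. NAD+ and ADPR quantified by RapidFire MS.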
Broadly, the IC50 is the concentration at which inhibition is half-maximal. Lower therefore signals greater potency. Take `O=C(CCc1ccc(Cl)cc1)Nc1[nH]nc(-c2ccnnc2)c1C1CCC1` [Example 264]: the IC50 was < 5 µM. In turn, `O=C(Nc1nc(-c2ccncc2)n[nH]1)c1ccccc1` [Example 135] displayed a concentration for half-maximal inhibition (IC50) of 5 to 15 µM. On to `O=C(NCc1ccc(Cl)cc1)Nc1cc(-c2ccncc2)n[nH]1` [Example 7], for which the IC50 was < 5 µM. In the case of `CN(C)C(=O)Cc1c(-c2ccncc2)n[nH]c1NC(=O)CCc1ccc(Cl)nc1` [Example 316], the IC50 was < 5 µM. As to `O=C(CCc1ccc(Cl)cc1)Nc1nnc(-c2ccncc2)[nH]1` [Example 136], the IC50 is < 5 µM. For the compound `[2H]C([2H])(C(=O)Nc1nnc(-c2ccnnc2)[nH]1)C([2H])([2H])c1ccc(Cl)nc1` [Example 191], the concentration for half-maximal inhibition (IC50) is < 5 µM. `CC(C)(C)c1ccc(CCC(=O)Nc2nnc(-c3ccncc3)[nH]2)cc1` [Example 78]: the IC50 lay within 5 to 15 µM.

As for `O=C(Nc1nnc(-c2ccncc2)[nH]1)[C@@H]1C[C@H]1c1ccccc1` [Example 104], the half-inhibitory concentration (IC50) fell in the range of 5 to 15 µM. Regarding `O=C(CC1CCOc2cc(Cl)ccc21)Nc1nnc(-c2ccnnc2)[nH]1` (stereo not shown) [Example 193], the IC50 is < 5 µM.

In the case of `Cc1c(-c2ccncc2)n[nH]c1NC(=O)CC(C)c1ccc(F)cc1` (stereo not shown) [Example 246], the IC50 was < 5 µM. In the case of `Cc1c(-c2ccncc2)n[nH]c1NC(=O)N1CC(c2ccc(Cl)cc2)C1` [Example 218], the IC50 is < 5 µM. For `O=C(Nc1nnc(-c2ccncc2)[nH]1)[C@H]1CCc2ccccc2C1` [Example 88] the value was < 5 µM. `O=C(C[C@H]1CCOc2cc(Cl)ncc21)Nc1nnc(-c2ccncc2)[nH]1` [Example 234]: the concentration for half-maximal inhibition (IC50) is < 5 µM. For `Nc1cc(-c2cc(NC(=O)CCc3ccc(Cl)cc3)[nH]n2)ccn1` [Example 31] the value was < 5 µM; for `Cc1c(-c2ccncc2)n[nH]c1NC(=O)N1CC(c2ccccc2)C1` [Example 216], < 5 µM.

Consider `O=C(CCc1ccc(Cl)cc1)Nc1nnc(-c2cncs2)[nH]1` [Example 60], for which the IC50 was < 5 µM. For `Nc1nnc(-c2ccncc2)[nH]1` [Example 147] the value was > 30 µM; for `Cc1c(-c2ccncc2)n[nH]c1NC(=O)CCc1ccc(Cl)c(C#N)c1` [Example 270], < 5 µM; for `O=C(CCc1ccc(Cl)s1)Nc1cc(-c2ccnnc2)[nH]n1` [Example 24], < 5 µM. Take `Cc1ccc(CCC(=O)Nc2nnc(-c3ccncc3)[nH]2)c(C)c1` [Example 129]: the half-maximal inhibitory concentration (IC50) is < 5 µM. Take `O=C(Nc1nnc(-c2ccncc2)[nH]1)N1CCc2nc(Cl)ccc2C1` [Example 166]: the IC50 is < 5 µM. For `O=C(Nc1nnc(-c2ccncc2)[nH]1)N[C@@H]1CCOc2cc(Cl)ncc21` [Example 276] the value was 5 to 15 µM; for `Cc1c(-c2ccncc2F)n[nH]c1NC(=O)CCc1ccc(Cl)c(F)c1` [Example 320], < 5 µM. Take `NS(=O)(=O)c1c(-c2ccncc2)n[nH]c1NC(=O)CCc1ccc(Cl)cc1` [Example 161]: the half-inhibitory concentration (IC50) was in the range of 5 to 15 µM. On to `O=C(CCc1ccc(C(F)(F)F)cc1)Nc1cc(-c2ccncc2)[nH]n1` [Example 62], for which the half-inhibitory concentration (IC50) was < 5 µM.

As to `O=C(CCc1ccc(Cl)cn1)Nc1nnc(-c2ccncc2)[nH]1` [Example 106], the IC50 is < 5 µM.

`Cc1c(-c2ccncc2)n[nH]c1NC(=O)Cn1cc(C)c2ccccc21` [Example 241] gave an IC50 of 5 to 15 µM. In the case of `O=C(C[C@@H]1CCOc2ccccc21)Nc1nnc(-c2ccncc2)[nH]1` [Example 71], the IC50 was < 5 µM.

With `O=C(CC1CCCc2ccccc21)Nc1nnc(-c2ccncc2)[nH]1` (stereo not shown) [Example 132], the half-inhibitory concentration (IC50) is < 5 µM. Take `O=C(Nc1nnc(-c2ccncc2)[nH]1)C1CCc2ccccc2C1` (stereo not shown) [Example 131]: the IC50 is < 5 µM.

Consider `Cc1c(-c2ccncc2)n[nH]c1NC(=O)CCc1ccc(Cl)nc1` [Example 27], for which the IC50 was < 5 µM.

The compound `Cc1nn(C)c(C)c1OCC(=O)Nc1[nH]nc(-c2ccncc2)c1C` [Example 240] had an IC50 of 5 to 15 µM.

With `O=C(CCc1ccc(Cl)s1)Nc1cc(-c2ccncc2)[nH]n1` [Example 54], the half-inhibitory concentration (IC50) is < 5 µM. For the compound `O=C(CCc1ccc(Cl)nc1)Nc1cc(-c2ccnnc2)n[nH]1` [Example 19], the half-maximal inhibitory concentration (IC50) is < 5 µM. `O=C(CCc1ccc(Cl)cc1)Nc1[nH]nc(-c2ccncc2)c1F` [Example 168]: the IC50 is < 5 µM. For `Cc1c(-c2ccncc2F)n[nH]c1NC(=O)CCc1ccc(Cl)cc1` [Example 313] the value was < 5 µM.

Turning to `O=C(CCc1ccc(Cl)nc1)Nc1nnc(-c2ccncc2)[nH]1` [Example 84], the IC50 was < 5 µM.

Consider `Cc1c(-c2ccncc2)n[nH]c1NC(=O)CCc1ccc(C#N)c(F)c1` [Example 274], for which the IC50 is < 5 µM.

Consider `Cc1c(-c2ccnnc2)n[nH]c1NC(=O)CCc1ccc(Cl)s1` [Example 152], for which the half-inhibitory concentration (IC50) is < 5 µM.

As to `Cn1ccnc1CCC(=O)Nc1nnc(-c2ccncc2)[nH]1` [Example 128], the IC50 was > 30 µM.
